According to US3939266A, “Substituted sulfonylacetamido cephalosporins” (SmithKline Corporation, priority 1974, dated 1976):
Converted amounts (≈) assume the structure as drawn. Like-named read-outs stand apart in the source and are kept apart here.

Tests used:
Assay type in all cases: cell-based
Strep. pyog. C 203 = assay: MIC against Strep. pyog. C 203
Strep. faecalis HH 34358 = assay: MIC against Strep. faecalis HH 34358; settings: Enterococcus faecalis, HH34358
Salmonella ATCC 12176 = assay: MIC against Salmonella ATCC 12176; settings: ATCC12176
Shigella HH 112 = assay: MIC against Shigella HH 112; settings: HH112
S. villaluz = assay: MIC against S. villaluz
[1] = system: Entero. aerog. ATCH 13048; assay: MIC against Entero. aerog. ATCH 13048
Pseudo. sp. HH 63 = assay: MIC against Pseudo. sp. HH 63
E. coli SK 12140 = assay: MIC against E. coli SK 12140; settings: Escherichia coli, SK12140
E. coli HH 33779 = assay: MIC against E. coli HH 33779; settings: Escherichia coli, HH33779
S. aureus HH 127 = assay: MIC against S. aureus HH 127; settings: Staphylococcus aureus, HH127
S. aureus SK 23390 = assay: MIC against S. aureus SK 23390; settings: Staphylococcus aureus, SK23390
Kleb. pneumo. SK 4200 = assay: MIC against Kleb. pneumo. SK 4200
Kleb. pneumo. SK 1200 = assay: MIC against Kleb. pneumo. SK 1200
Serra. marc. ATCC 13880 = assay: MIC against Serra. marc. ATCC 13880
Entero. cloaca PaSL 969 = assay: MIC against Entero. cloaca PaSL 969
[2] = Salmonella ATCC 12176, read-out: MIC
[3] = E. coli SK 12140, read-out: MIC

| Structure (SMILES) | MIC (Strep. pyog. C 203) | MIC (Strep. faecalis HH 34358) | MIC (Salmonella ATCC 12176; [2]) | MIC (Shigella HH 112; Shigella HH 112, read-out: MIC) | MIC (S. villaluz) | MIC [1] | MIC (Pseudo. sp. HH 63) | MIC (E. coli SK 12140; [3]) | MIC (E. coli HH 33779) | MIC (S. aureus HH 127) | MIC (S. aureus SK 23390) | MIC (Kleb. pneumo. SK 4200) | MIC (Kleb. pneumo. SK 1200) | MIC (Serra. marc. ATCC 13880) | MIC (Entero. cloaca PaSL 969) | MIC (Salmonella ATCC 12176; Salmonella) | MIC (Shigella HH 112; Shigella) | MIC (E. coli SK 12140) |
| --- | --- | --- | --- | --- | --- | --- | --- | --- | --- | --- | --- | --- | --- | --- | --- | --- | --- | --- |
| Cn1c(SCC2=C(C(=O)O)N3C(=O)C(NC(=O)CS(C)(=O)=O)C3SC2)n[nH]c1=O (centres unmarked) [Compound 59857] | 0.2 µg/mL (≈ 0.431 µM) | 100 µg/mL (≈ 216 µM) | 3.1 µg/mL (≈ 6.69 µM) | 25 µg/mL (≈ 53.9 µM) | 25 µg/mL (≈ 53.9 µM) | > 200 µg/mL | > 200 µg/mL | 25 µg/mL (≈ 53.9 µM) | 50 µg/mL (≈ 108 µM) | 1.6 µg/mL (≈ 3.45 µM) | 1.6 µg/mL (≈ 3.45 µM) | 6.3 µg/mL (≈ 13.6 µM) | 6.3 µg/mL (≈ 13.6 µM) | > 200 µg/mL | – | – | – | – |
| CC(=O)OCC1=C(C(=O)O)N2C(=O)C(NC(=O)CS(C)(=O)=O)C2SC1 (centres unmarked) [Compound 54293, 7-Methylsulfonylacetamidocephalosporanic acid] | 0.4 µg/mL (≈ 1.02 µM) | 200 µg/mL (≈ 510 µM) | 12.5 µg/mL (≈ 31.9 µM) | 25 µg/mL (≈ 63.7 µM) | – | > 200 µg/mL | > 200 µg/mL | 12.5 µg/mL (≈ 31.9 µM) | 25 µg/mL (≈ 63.7 µM) | 3.1 µg/mL (≈ 7.9 µM) | 1.6 µg/mL (≈ 4.08 µM) | 12.5 µg/mL (≈ 31.9 µM) | 12.5 µg/mL (≈ 31.9 µM) | – | > 200 µg/mL | – | – | – |
| Cn1nnnc1SCC1=C(C(=O)O)N2C(=O)C(NC(=O)CS(C)(=O)=O)[C@H]2SC1 (some centres unmarked) [Compound 57286, 7-Methylsulfonylacetamido-3-(1-methyltetrazol-5-ylthiomethyl)-3-cephem-4-carboxylic acid] | 0.2 µg/mL (≈ 0.446 µM) | 100 µg/mL (≈ 223 µM) | 3.1 µg/mL (≈ 6.91 µM) | 3.1 µg/mL (≈ 6.91 µM) | – | > 200 µg/mL | > 200 µg/mL | 3.1 µg/mL (≈ 6.91 µM) | 12.5 µg/mL (≈ 27.9 µM) | 3.1 µg/mL (≈ 6.91 µM) | 1.6 µg/mL (≈ 3.57 µM) | 1.6 µg/mL (≈ 3.57 µM) | 3.1 µg/mL (≈ 6.91 µM) | > 200 µg/mL | > 200 µg/mL | – | – | – |
| CC(=O)OCC1=C(C(=O)O)N2C(=O)C(NC(=O)CS(=O)(=O)c3ccccc3)C2SC1 (centres unmarked) [Compound 57359, 7-Phenylsulfonylacetamidocephalosporanic acid] | 0.2 µg/mL (≈ 0.44 µM) | 50 µg/mL (≈ 110 µM) | 12.5 µg/mL (≈ 27.5 µM) | 25 µg/mL (≈ 55 µM) | – | > 200 µg/mL | > 200 µg/mL | 50 µg/mL (≈ 110 µM) | 100 µg/mL (≈ 220 µM) | 1.6 µg/mL (≈ 3.52 µM) | 0.8 µg/mL (≈ 1.76 µM) | 12.5 µg/mL (≈ 27.5 µM) | 6.3 µg/mL (≈ 13.9 µM) | > 200 µg/mL | > 200 µg/mL | – | – | – |
| Cn1cnnc1SCC1=C(C(=O)O)N2C(=O)C(NC(=O)CS(C)(=O)=O)C2SC1 (centres unmarked) [Compound 59758] | 0.1 µg/mL (≈ 0.223 µM) | 200 µg/mL (≈ 447 µM) | – | – | 50 µg/mL (≈ 112 µM) | > 200 µg/mL | > 200 µg/mL | 6.3 µg/mL (≈ 14.1 µM) | 12.5 µg/mL (≈ 27.9 µM) | 3.1 µg/mL (≈ 6.93 µM) | 1.6 µg/mL (≈ 3.58 µM) | 6.3 µg/mL (≈ 14.1 µM) | 6.3 µg/mL (≈ 14.1 µM) | > 200 µg/mL | – | 3.1 µg/mL (≈ 6.93 µM) | 0.1 µg/mL (≈ 0.223 µM) | – |
| CC(=O)OCC1=C(C(=O)O)N2C(=O)C(NC(=O)CS(N)(=O)=O)C2SC1 (centres unmarked) [Compound 59393, 7-Aminosulfonylacetamidocephalosporanic acid] | 0.1 µg/mL (≈ 0.254 µM) | 50 µg/mL (≈ 127 µM) | 12.5 µg/mL (≈ 31.8 µM) | 25 µg/mL (≈ 63.5 µM) | – | 200 µg/mL (≈ 508 µM) | > 200 µg/mL | 50 µg/mL (≈ 127 µM) | 50 µg/mL (≈ 127 µM) | 1.6 µg/mL (≈ 4.07 µM) | 1.6 µg/mL (≈ 4.07 µM) | 25 µg/mL (≈ 63.5 µM) | 25 µg/mL (≈ 63.5 µM) | > 200 µg/mL | 100 µg/mL (≈ 254 µM) | – | – | – |
| Cc1nnc(SCC2=C(C(=O)O)N3C(=O)C(NC(=O)CS(=O)(=O)c4ccccc4)[C@H]3SC2)s1 (some centres unmarked) [Compound 57360, 7-Phenylsulfonylacetamido-3-(2-methyl-1,3,4-thiadiazol-5-ylthiomethyl)-3-cephem-4-carboxylic acid] | 0.1 µg/mL (≈ 0.19 µM) | 25 µg/mL (≈ 47.5 µM) | 25 µg/mL (≈ 47.5 µM) | 25 µg/mL (≈ 47.5 µM) | – | > 200 µg/mL | > 200 µg/mL | 25 µg/mL (≈ 47.5 µM) | 100 µg/mL (≈ 190 µM) | 0.8 µg/mL (≈ 1.52 µM) | 0.4 µg/mL (≈ 0.76 µM) | 25 µg/mL (≈ 47.5 µM) | 12.5 µg/mL (≈ 23.7 µM) | > 200 µg/mL | > 200 µg/mL | – | – | – |
| Cc1nnc(SCC2=C(C(=O)O)N3C(=O)C(NC(=O)CS(C)(=O)=O)[C@H]3SC2)s1 (some centres unmarked) [Compound 55848, 7-Methylsulfonylacetamido-3-(2-methyl-1,3,4-thiadiazol-5-ylthiomethyl)-3-cephem-4-carboxylic acid] | 0.2 µg/mL (≈ 0.431 µM) | 50 µg/mL (≈ 108 µM) | 3.1 µg/mL (≈ 6.67 µM) | 12.5 µg/mL (≈ 26.9 µM) | – | > 200 µg/mL | > 200 µg/mL | – | 25 µg/mL (≈ 53.8 µM) | 1.6 µg/mL (≈ 3.44 µM) | 1.6 µg/mL (≈ 3.44 µM) | 3.1 µg/mL (≈ 6.67 µM) | 6.3 µg/mL (≈ 13.6 µM) | – | > 200 µg/mL | – | – | 12.5 µg/mL (≈ 26.9 µM) |
| CCS(=O)(=O)CC(=O)NC1C(=O)N2C(C(=O)O)=C(COC(C)=O)CSC12 (centres unmarked) [Compound 59623, 7-Ethylsulfonylacetamidocephalosporanic acid] | 0.1 µg/mL (≈ 0.246 µM) | 100 µg/mL (≈ 246 µM) | 3.1 µg/mL (≈ 7.63 µM) | 25 µg/mL (≈ 61.5 µM) | 100 µg/mL (≈ 246 µM) | 200 µg/mL (≈ 492 µM) | > 200 µg/mL | 25 µg/mL (≈ 61.5 µM) | 50 µg/mL (≈ 123 µM) | 0.8 µg/mL (≈ 1.97 µM) | 0.8 µg/mL (≈ 1.97 µM) | 6.3 µg/mL (≈ 15.5 µM) | 6.3 µg/mL (≈ 15.5 µM) | > 200 µg/mL | – | – | – | – |
| CCS(=O)(=O)CC(=O)NC1C(=O)N2C(C(=O)O)=C(CSc3nnc(C)s3)CSC12 (centres unmarked) [Compound 59641, 7-Ethyldulfonylacetamido-3-(2-methyl-1,3,5-thiadiazol-5-yl-thiomethyl)-3-cephem-4-carboxylic acid] | 0.1 µg/mL (≈ 0.209 µM) | 25 µg/mL (≈ 52.2 µM) | 1.6 µg/mL (≈ 3.34 µM) | 6.3 µg/mL (≈ 13.2 µM) | – | 100 µg/mL (≈ 209 µM) | > 200 µg/mL | 3.1 µg/mL (≈ 6.48 µM) | 12.5 µg/mL (≈ 26.1 µM) | 0.4 µg/mL (≈ 0.836 µM) | 0.4 µg/mL (≈ 0.836 µM) | 1.6 µg/mL (≈ 3.34 µM) | 1.6 µg/mL (≈ 3.34 µM) | > 200 µg/mL | – | – | – | – |
